molecular target: T1, RIPK2 enzyme (Homo sapiens, UniProt O43353); test: RIPK2 inhibition (ADP-Glo Kinase Assay); assay type: biochemical; conditions: RIPK2 5 nM, ATP 150 μM, MBP substrate, read-out: RIPK2 IC50
T1 construct: purchased Carna 09-128
Procedure, shortened: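 Swine MBP substrate; compound and 5 nM RIPK2 first mixed for 30 min at room temperature; buffer pH 7.5 HEPES 50 mM with 10 mM MgCl2, 2 mM DTT, 1 mM EGTA, Brij-35, BSA.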

T1 sequence (O43353 1-299 limits assumed): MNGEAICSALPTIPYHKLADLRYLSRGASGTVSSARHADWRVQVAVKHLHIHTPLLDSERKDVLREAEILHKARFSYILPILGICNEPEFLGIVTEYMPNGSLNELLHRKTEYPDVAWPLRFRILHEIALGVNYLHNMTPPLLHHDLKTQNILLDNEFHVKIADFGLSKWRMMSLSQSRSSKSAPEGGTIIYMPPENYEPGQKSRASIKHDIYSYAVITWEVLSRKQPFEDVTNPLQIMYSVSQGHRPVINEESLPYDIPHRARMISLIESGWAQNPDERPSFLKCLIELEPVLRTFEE

IC50 [nM]	SMILES
< 2.5	Cc1cc(CC(=O)Nc2cnn(C(C)(C)C)c2)c(F)cc1Oc1ccnc2ccc(C(C)(C)C#N)cc12 [Compound 411, N-(1-(tert-butyl)-1H-pyrazol-4-yl)-2-(4-((6-(2-cyanopropan-2-yl)quinolin-4-yl)oxy)-2-fluoro-5-methylphenyl)acetamide]
< 2.5	Cc1cc(CC(=O)Nc2cnn(C(C)(C)C)c2)c(F)cc1Oc1ccnc2ccc(N3CCOC3=O)cc12 [Compound 414, N-(1-(tert-butyl)-1H-pyrazol-4-yl)-2-(2-fluoro-5-methyl-4-((6-(2-oxooxazolidin-3-yl)quinolin-4-yl)oxy)phenyl) acetamide]
< 2.5	Cc1cc(CC(=O)Nc2cnn(C(C)(C)C)c2)c(F)cc1Oc1ccnc2ccc(S(=O)(=O)C3CC3)cc12 [Compound 416, N-(1-(tert-butyl)-1H-pyrazol-4-yl)-2-(4-((6-(cyclopropylsulfonyl)quinolin-4-yl)oxy)-2-fluoro-5-methylphenyl)acetamide]
< 2.5	Cc1cc(CC(=O)Nc2cnn(C(C)(C)C)c2)c(F)cc1Oc1ccnc2ccc(CN3CCNCC3)cc12 [Compound 419, N-(1-(tert-butyl)-1H-pyrazol-4-yl)-2-(2-fluoro-5-methyl-4-((6-(piperazin-1-ylmethyl)quinolin-4-yl)oxy)phenyl)acetamide]
< 2.5	Cc1cc(CC(=O)Nc2cnn(C(C)(C)C)c2)c(F)cc1Oc1ccnc2ccc(CN3C[C@@H]4C[C@H]3CO4)cc12 [Compound 422, 2-(4-((6-(((1S,4S)-2-oxa-5-azabicyclo[2.2.1]heptan-5-yl)methyl)quinolin-4-yl)oxy)-2-fluoro-5-methylphenyl)-N-(1-(tert-butyl)-1H-pyrazol-4-yl)acetamide]
< 2.5	Cc1cc(CC(=O)Nc2cnn(C(C)(C)C)c2)c(F)cc1Oc1ccnc2ccc(CN3C[C@H]4C[C@@H]3CO4)cc12 [Compound 423, 2-(4-((6-(((1R,4R)-2-oxa-5-azabicyclo[2.2.1]heptan-5-yl)methyl)quinolin-4-yl)oxy)-2-fluoro-5-methylphenyl)-N-(1-(tert-butyl)-1H-pyrazol-4-yl)acetamide]
< 2.5	Cc1cc(CC(=O)Nc2cnn(C(C)(C)C)c2)c(F)cc1Oc1ccnc2ccc(-c3ncccn3)cc12 [Compound 424, N-(1-(tert-butyl)-1H-pyrazol-4-yl)-2-(2-fluoro-5-methyl-4-((6-(pyrimidin-2-yl)quinolin-4-yl)oxy)phenyl)acetamide]
< 2.5	Cc1cc(CC(=O)Nc2cnn(C(C)(C)C)c2)c(F)cc1Oc1ccnc2ccc(-c3cnccn3)cc12 [Compound 425, N-(1-(tert-butyl)-1H-pyrazol-4-yl)-2-(2-fluoro-5-methyl-4-((6-(pyrazin-2-yl)quinolin-4-yl)oxy)phenyl)acetamide]
< 2.5	Cc1cc(CC(=O)Nc2cnn(C(C)(C)C)c2)c(F)cc1Oc1ccnc2ccc(-c3cccnn3)cc12 [Compound 426, N-(1-(tert-butyl)-1H-pyrazol-4-yl)-2-(2-fluoro-5-methyl-4-((6-(pyridazin-3-yl)quinolin-4-yl)oxy)phenyl)acetamide]
< 2.5	Cc1cc(CC(=O)Nc2cnn(C(C)(C)C)c2)c(F)cc1Oc1ccnc2ccc(-c3ncn(C)n3)cc12 [Compound 427, N-(1-(tert-butyl)-1H-pyrazol-4-yl)-2-(2-fluoro-5-methyl-4-((6-(1-methyl-1H-1,2,4-triazol-3-yl)quinolin-4-yl)oxy)phenyl)acetamide]
< 2.5	Cc1cc(CC(=O)Nc2cnn(C(C)(C)C)c2)c(F)cc1Oc1ccnc2ccc(-c3ncnn3C)cc12 [Compound 428, N-(1-(tert-butyl)-1H-pyrazol-4-yl)-2-(2-fluoro-5-methyl-4-((6-(1-methyl-1H-1,2,4-triazol-5-yl)quinolin-4-yl)oxy)phenyl)acetamide]

More lines, now with the values behind:

SMILES	IC50 [nM]
Cc1c(Oc2ccnc3ccc(C(=O)NCC4COC4)cc23)ccc(CC(=O)Nc2cnn(C(C)(C)C)c2)c1F [Compound 399, 4-(4-(2-((1-(tert-butyl)-1H-pyrazol-4-yl)amino)-2-oxoethyl)-3-fluoro-2-methyl-phenoxy)-N-(oxetan-3-ylmethyl) quinoline-6-carboxamide]	< 2.5
Cc1c(Oc2ccnc3ccc(C(=O)NC4COC4)cc23)ccc(CC(=O)Nc2cnn(C(C)(C)C)c2)c1F [Compound 400, 4-(4-(2-((1-(tert-butyl)-1H-pyrazol-4-yl)amino)-2-oxoethyl)-3-fluoro-2-methyl-phenoxy)-N-(oxetan-3-yl)quinoline-6-carboxamide]	< 2.5
Cc1c(Oc2ccnc3ccc(C(=O)N[C@H]4C[C@H](O)C4)cc23)ccc(CC(=O)Nc2cnn(C(C)(C)C)c2)c1F [Compound 401, 4-(4-(2-((1-(tert-butyl)-1H-pyrazol-4-yl)amino)-2-oxoethyl)-3-fluoro-2-methyl-phenoxy)-N-((1r,3r)-3-hydroxy-cyclobutyl) quinoline-6-carboxamide]	< 2.5
Cc1c(Oc2ccnc3ccc(C(=O)N[C@H]4C[C@@H](O)C4)cc23)ccc(CC(=O)Nc2cnn(C(C)(C)C)c2)c1F [Compound 402, 4-(4-(2-((1-(tert-butyl)-1H-pyrazol-4-yl)amino)-2-oxoethyl)-3-fluoro-2-methyl-phenoxy)-N-((1s,3s)-3-hydroxy-cyclobutyl) quinoline-6-carboxamide]	< 2.5
Cc1c(Oc2ccnc3ccc(C(=O)NC4CNC4)cc23)ccc(CC(=O)Nc2cnn(C(C)(C)C)c2)c1F [Compound 405, N-(azetidin-3-yl)-4-(4-(2-((1-(tert-butyl)-1H-pyrazol-4-yl)amino)-2-oxoethyl)-3-fluoro-2-methylphenoxy)quinoline-6-carboxamide]	< 2.5
Cc1c(Oc2ccnc3ccc(C(=O)NC4CC(F)(F)C4)cc23)ccc(CC(=O)Nc2cnn(C(C)(C)C)c2)c1F [Compound 406, 4-(4-(2-((1-(tert-butyl)-1H-pyrazol-4-yl)amino)-2-oxoethyl)-3-fluoro-2-methylphenoxy)-N-(3,3-difluorocyclobutyl)quinoline-6-carboxamide]	< 2.5
Cc1c(Oc2ccnc3ccc(CC4CCNCC4)cc23)ccc(CC(=O)Nc2cnn(C(C)(C)C)c2)c1F [Compound 407, N-(1-(tert-butyl)-1H-pyrazol-4-yl)-2-(2-fluoro-3-methyl-4-((6-(piperidin-4-ylmethyl)quinolin-4-yl)oxy)phenyl)acetamide]	< 2.5
Cc1cc(CC(=O)Nc2cnn(C(C)(C)C)c2)c(F)cc1Oc1ccnc2ccc(CC3CCNCC3)cc12 [Compound 408, N-(1-(tert-butyl)-1H-pyrazol-4-yl)-2-(2-fluoro-5-methyl-4-((6-(piperidin-4-ylmethyl)quinolin-4-yl)oxy)phenyl)acetamide]	< 2.5
Cc1c(Oc2ccnc3ccc(O[C@H]4C[C@H]5CC[C@@H](C4)N5)cc23)ccc(CC(=O)Nc2cnn(C(C)(C)C)c2)c1F [Compound 409, 2-(4-((6-(((1R,3r,5S)-8-azabicyclo[3. 2.1]octan-3-yl)oxy)quinolin-4-yl)oxy)-2-fluoro-3-methyl-pheny1)-N-(1-(tert-butyl)-1H-pyrazol-4-yl)acetamide]	< 2.5
Cc1cc(CC(=O)Nc2cnn(C(C)(C)C)c2)c(F)cc1Oc1ccnc2ccc(O[C@H]3C[C@H]4CC[C@@H](C3)N4)cc12 [Compound 410, 2-(4-((6-(((1R,3r,5S)-8-azabicyclo[3. 2.1]octan-3-yl)oxy)quinolin-4-yl)oxy)-2-fluoro-5-methyl-pheny1)-N-(1-(tert-butyl)-1H-pyrazol-4-yl)acetamide]	< 2.5
COc1cc2nccc(Oc3cc(F)c(CC(=O)Nc4cnn(C(C)(C)C)c4)cc3C)c2cc1S(C)(=O)=O [Compound 412, N-(1-(tert-butyl)-1H-pyrazol-4-yl)-2-(2-fluoro-4-((7-methoxy-6-(methylsulfonyl)quinolin-4-yl)oxy)-5-methylphenyl) acetamide]	< 2.5
Cc1cc(CC(=O)Nc2cnn(C(C)(C)C)c2)c(F)cc1Oc1ccnc2ccc(S(=O)(=O)CC(C)(C)O)cc12 [Compound 415, N-(1-(tert-butyl)-1H-pyrazol-4-yl)-2-(2-fluoro-4-((6-((2-hydroxy-2-methylpropyl)sulfonyl)quinolin-4-yl)oxy)-5-methylphenyl)acetamide]	< 2.5
CCS(=O)(=O)c1ccc2nccc(Oc3ccc(CC(=O)Nc4cnn(C(C)(C)C)c4)cc3C(F)F)c2c1 [Compound 417, N-(1-(tert-butyl)-1H-pyrazol-4-yl)-2-(3-(difluoromethyl)-4-((6-(ethylsulfonyl)quinolin-4-yl)oxy)phenyl) acetamide]	< 2.5
CC(C)(C)n1cc(NC(=O)Cc2ccc(Oc3ccnc4ccc(S(=O)(=O)C5CC5)cc34)c(C(F)F)c2)cn1 [Compound 418, N-(1-(tert-butyl)-1H-pyrazol-4-yl)-2-(4-((6-(cyclopropyl-sulfonyl)quinolin-4-yl)oxy)-3-(difluoromethyl)phenyl)acetamide]	< 2.5
Cc1cc(CC(=O)Nc2cnn(C(C)(C)C)c2)c(F)cc1Oc1ccnc2ccc(CN3C[C@@H]4C[C@H]3CN4)cc12 [Compound 420, 2-(4-((6-(((1S,4S)-2,5-diazabicyclo[2.2.1]heptan-2-yl)methyl)quinolin-4-yl)oxy)-2-fluoro-5-methylphenyl)-N-(1-(tert-butyl)-1H-pyrazol-4-yl)acetamide]	< 2.5
Cc1cc(CC(=O)Nc2cnn(C(C)(C)C)c2)c(F)cc1Oc1ccnc2ccc(CN3C[C@H]4C[C@@H]3CN4)cc12 [Compound 421, 2-(4-((6-(((1R,4R)-2,5-diazabicyclo[2.2.1]heptan-2-yl)methyl)quinolin-4-yl)oxy)-2-fluoro-5-methylphenyl)-N-(1-(tert-butyl)-1H-pyrazol-4-yl)acetamide]	< 2.5
CCS(=O)(=O)c1ccc2nccc(Oc3cc(F)c(CC(=O)Nc4cnn(C(C)(C)C)c4)cc3Cl)c2c1 [Compound 430, N-(1-(tert-butyl)-1H-pyrazol-4-yl)-2-(5-chloro-4-((6-(ethylsulfonyl)quinolin-4-yl)oxy)-2-fluorophenyl)acetamide]	< 2.5

Source: US12624018B1, “Inhibitors of RIPK2 and medical uses thereof” (Odyssey Therapeutics, Inc., priority 2022, dated 2026)
